Results: patent US20240181049A1, “HARNESSING THE POWER OF MICROBIOTA AND METABOLITES FOR THE TREATMENT OF CANCER” (UTI LIMITED PARTNERSHIP, priority 2019, published 2024)

What was measured:
Format in all cases: in vivo
[1] = tested on: MC38 tumor cells; assay: MC38 tumors in GF mice: inosine with anti-CTLA-4 with or without CpG
Experimental: (§1) FIG. 5A-5L: Inosine promotes Th1 activation and anti-tumor immunity. (a) Schematic overview of experimental setup to assess the effect of inosine on Th1 activation in vivo. (b, c) Representative dot plots and quantification (left and right panel respectively) of T-bet^+IFN-γ^+CD3ε^+ (b) CD8^+ or (c) CD4^+ T cells in the MLN. (d) Schematic overview of experimental setup to assess the effect of inosine on anti-tumor immunity. Upon palpable tumors, mice were treated with 100 μg anti-CTLA-4 i.p. (5 times every 72 hours) and in some groups 20 μg CpG i.p. (5 times every 72 hours). In addition, inosine (300 mg/KG/BW) or PBS was given daily orally (O), through gavage or systemically (S) through i.p. injection. (e) Tumor weight and quantification of IFN-γ^+ cells amongst (f) CD4^+ or (g) CD8^+ cells are shown. (h). Schematic overview to assess the requirement of A2AR signaling for inosine-induced anti-tumor immunity. 1×10^6 MC38 cells (s.c.) and WT or A2AR-deficient 1×10^7 T cells (i.v. 6×10^6 CD4^+ and 4×10^6 CD8^+ cells) were injected. Upon palpable tumors, mice were treated with 100 μg anti-CTLA-4, 20 μg CpG (4 times every 72 hours, both i.p.) and inosine (daily, 300 mg/KG/BW, through gavage). (i) Pictures of tumors are shown at day 20. scale bars: 1 cm. (j) Tumor weight and quantification of IFN-γ^+ in (k) CD8^+ or (l) CD4^+ cells in the tumor are shown. Data are mean±SEM and pooled from two individual experiments (a-l) 10-11 mice/group. *, P<0.05; **, P<0.01; ***, P<0.001.
FIG. 18A-18H: Classical dendritic cells are required for bacteria dependent effect of ICB. (a) IL-12p70 expression in classical dendritic cells (MHCII^+CD11c^+B220^−CD64^−) and macrophages (MHCII^+CD11c^+B220^−, CD64^+) (b) Quantification of IL-12p70 expression in macrophages and cDCs. Classical dendritic cells were depleted with diphtheria toxin (DT) in bone marrow chimeric mice after MC38 tumor challenge, followed by anti-CTLA-4 treatment (see FIG. 4h for experimental setup). Quantification of splenic (c) IFN-γ^+CD8^+ or (d) Ki-67^+ CD8^+ T cells. (e and f) same as (c and d) but for CD4^+ T cells. (g and h) 1×10^6 MC38 cells (s.c.) were injected in GF mice. Seven days later upon palpable tumors, mice were treated with 100 μg anti-CTLA-4 i.p. (5 times every 72 hours) and in some groups 20 μg CpG i.p. (5 times every 72 hours). In addition, inosine (300 mg/KG/BW) or PBS was given daily orally (O), through gavage or systemically (S) through i.p. injection. Quantification of Ki-67^+ cells is shown. […]
(§2) To evaluate the effect of inosine on Th1 activation, mice received 30 μg CpG, […] EndoFit Ovalbumin (both Invivogen) and 2 μg OVA323-339 (Sigma) i.p. and 24 hours later mice received 300 mg/kg/BW inosine or PBS as a control through i.p. injection. T cell differentiation was assessed 48 hours later. […]

[2] = tested on: MC38 tumor cells; assay: MC38 tumors in GF Rag1-deficient mice receiving WT or A2AR-deficient T cells, inosine + anti-CTLA-4 + CpG; settings: WT vs A2AR-deficient T cells
Experimental: as §1
as §2, with “later. To assess the impact of inosine on tumor development during ICB therapy 1×10^6 cancer cells were injected subcutaneously (s.c.) in the flank of germ-free mice.” for “later.”

[3] = tested on: MC38; assay: MC38 tumors in SPF mice, inosine or B. pseudolongum + anti-CTLA-4; settings: oral gavage
Experimental: FIG. 35A-35H. Inosine and live B. pseudolongum improve anti-CTLA-4 therapy efficacy in moderately diverse and complex microbiomes. A) Schematic overview of experimental setup to assess the effect of inosine on anti-tumor immunity in gnotobiotic mice (Oligo-MM12) stably colonized with 12 bacterial species. Upon palpable tumors, Oligo-MM12 colonized mice were treated with 100 μg anti-CTLA-4 i.p. or Isotype antibody (5 times every 72 hours). In addition, inosine (300 mg/KG/BW) or PBS was given daily orally through gavage. (B) Pictures of tumors and (C) tumor weight are shown at day 20. scale bars: 1 cm. (D) Quantification of intratumoral IFN-γ+ cells amongst CD8+ or CD4+ T cells are shown. (E) Schematic overview of experimental setup to assess the effect of inosine and B. pseudolongum on anti-tumor immunity in SPF mice. Following MC38 injection some mice received antibiotics (ABX), specifically Ampicillin 1 mg/ml, Colistin 1 mg/ml and Streptomycin 5 mg/ml for 7 days in the drinking water. Upon palpable tumors, antibiotics were removed and 100 μg anti-CTLA-4 (5 times every 72 hours) started. Mice concomitantly received either PBS, inosine (300 mg/KG/BW daily), B. pseudolongum or heat inactivated (H.i.) B. pseudolongum orally through gavage (5 times every 72 hours). […] (H) Quantification of intratumoral IFN-γ+ cells amongst CD8+ or CD4+ cells are shown. […]

[4] = with anti-CTLA-4, in the absence of CpG
[5] = with anti-CTLA-4 and CpG, oral or systemic, vs PBS

For `OC[C@H]1O[C@@H](n2cnc3c(O)ncnc32)[C@H](O)[C@@H]1O` [inosine], the anti-tumor immunity [1, 4] was “reduced anti-tumor immunity”, the tumor weight [1, 4] was “increased tumor weight” and the anti-tumor immunity [1, 5] was “increased anti-tumor immunity”. For the same compound, the tumor weight [1, 5] was “reduction of tumor weight”, the “IFN-γ production within tumors” value [2] was “WT but not A2AR-deficient T cells displayed increased IFN-γ production within tumors” and the tumor weights [2] was “only GF mice receiving WT T cells showed reduced tumor weights”. For the same compound, the anti-CTLA-4/CpG-mediated anti-tumor immunity ([2]; inosine oral) was “enhanced anti-CTLA-4/CpG-mediated anti-tumor immunity in animals that received WT but not A2AR-deficient T cells” and the “efficacy of anti-CTLA-4” value [3] was “could promote the efficacy of anti-CTLA-4”.
